{"source": "patent US20070049593A1", "about": "(priority 2004, published 2007)", "note": "Where a name gives a salt, the structure may show the parent alone.", "data": [{"molecular_target": "T1, HCV polymerase (Hepatitis C virus genotype 1b, UniProt P26663)", "T1 construct": "a region encoding NS5B (J Virol 1991 March, 65(3), 1105-13, 544 amino acids after deletion of 47 amino acids on the C-terminal); 6xHis (C); made in house; host or cells: Escherichia coli", "T1 sequence (P26663 2420-2963)": "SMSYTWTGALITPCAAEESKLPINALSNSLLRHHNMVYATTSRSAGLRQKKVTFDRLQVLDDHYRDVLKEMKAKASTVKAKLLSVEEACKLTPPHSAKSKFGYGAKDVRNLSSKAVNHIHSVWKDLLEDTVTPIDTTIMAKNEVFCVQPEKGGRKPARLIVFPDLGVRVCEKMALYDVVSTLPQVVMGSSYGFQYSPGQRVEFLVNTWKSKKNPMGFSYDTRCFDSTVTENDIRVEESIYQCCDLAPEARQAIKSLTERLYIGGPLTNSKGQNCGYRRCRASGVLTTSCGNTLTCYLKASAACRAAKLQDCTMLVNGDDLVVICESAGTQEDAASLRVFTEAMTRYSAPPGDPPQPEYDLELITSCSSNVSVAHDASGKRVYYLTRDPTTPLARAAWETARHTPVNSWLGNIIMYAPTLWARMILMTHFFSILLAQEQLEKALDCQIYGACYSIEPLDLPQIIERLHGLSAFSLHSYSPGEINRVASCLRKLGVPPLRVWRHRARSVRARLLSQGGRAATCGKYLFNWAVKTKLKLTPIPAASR", "assay": "biochemical", "parameters": "species or system HCV BK strain", "summary_of_the_method": "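Recombinant HCV BK-strain NS5B (C-terminal 47 aa deleted, His6-tagged, E. coli), 0.5 μg/ml, run with 5 μg/ml in vitro-transcribed RNA template (polyU/3′X), ATP/GTP/CTP 50 μM, UTP 2 μM plus [3H]UTP, pH 7.5, 25° C, 90 min. TCA-precipitated RNA counted by scintillation; IC50 from activity with vs without compound.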", "units": {"IC50": "nM"}, "values": [{"smiles": "CCN1CCN(C(=O)CN2CCn3c(c(C4CCCCC4)c4ccc(C(=O)O)cc43)-c3ccc(F)cc32)CC1", "note": "[Example 1-162, 13-cyclohexyl-5-[2-(4-ethylpiperazin-1-yl)-2-oxoethyl]-3-fluoro-6,7-dihydro-5H-benzo[5,6][1,4]diazepino[7,1-a]indole-10-carboxylic acid dihydrochloride]", "IC50": "< 100"}, {"smiles": "O=C(O)c1ccc2c(C3CCCCC3)c3n(c2c1)CCN(CCc1ccccn1)c1ccccc1-3", "note": "[Example 1-163, 13-cyclohexyl-5-[2-(pyridin-2-yl)ethyl]-6,7-dihydro-5H-benzo[5,6][1,4]diazepino[7,1-a]indole-10-carboxylic acid dihydrochloride]", "IC50": "< 100"}, {"smiles": "COCCN1CCn2c(c(C3CCCCC3)c3ccc(C(=O)O)cc32)-c2ccccc21", "note": "[Example 1-164, 13-cyclohexyl-5-(2-methoxyethyl)-6,7-dihydro-5H-benzo[5,6][1,4]diazepino[7,1-a]indole-10-carboxylic acid monohydrochloride]", "IC50": "< 100"}, {"smiles": "O=C(O)c1ccc2c(C3CCCCC3)c3n(c2c1)CCN(CCC1CCCNC1)c1ccccc1-3", "note": "(stereo not shown) [Example 1-165, 13-cyclohexyl-5-[2-(piperidin-3-yl)ethyl]-6,7-dihydro-5H-benzo[5,6][1,4]diazepino[7,1-a]indole-10-carboxylic acid dihydrochloride]", "IC50": "< 100"}, {"smiles": "CCN1CCCC(CCN2CCn3c(c(C4CCCCC4)c4ccc(C(=O)O)cc43)-c3ccccc32)C1", "note": "(stereo not shown) [Example 1-166, 13-cyclohexyl-5-[2-(1-ethylpiperidin-3-yl)ethyl]-6,7-dihydro-5H-benzo[5,6][1,4]diazepino[7,1-a]indole-10-carboxylic acid dihydrochloride]", "IC50": "< 100"}, {"smiles": "CC(C)(C)OC(=O)N1CCCC(CCN2CCn3c(c(C4CCCCC4)c4ccc(C(=O)O)cc43)-c3ccccc32)C1", "note": "(stereo not shown) [Example 1-167, 5-[2-(1-tert-butoxycarbonylpiperidin-3-yl)ethyl]-13-cyclohexyl-6,7-dihydro-5H-benzo[5,6][1,4]diazepino[7,1-a]indole-10-carboxylic acid]", "IC50": "100 to 1000"}, {"smiles": "Cc1ccc2c(c1)N(CCN1CCCOCC1)CCn1c-2c(C2CCCCC2)c2ccc(C(=O)O)cc21", "note": "[Example 1-168, 13-cyclohexyl-3-methyl-5-[2-(1,4-oxazepan-4-yl)ethyl]-6,7-dihydro-5H-benzo[5,6][1,4]diazepino[7,1-a]indole-10-carboxylic acid]", "IC50": "< 100"}, {"smiles": "O=C(O)c1ccc2c(C3CCCCC3)c3n(c2c1)CCN(CCN1CCCOCC1)c1cc(Cl)ccc1-3", "note": "[Example 1-169, 3-chloro-13-cyclohexyl-5-[2-(1,4-oxazepan-4-yl)ethyl]-6,7-dihydro-5H-benzo[5,6][1,4]diazepino[7,1-a]indole-10-carboxylic acid monohydrochloride]", "IC50": "< 100"}, {"smiles": "O=C(O)c1ccc2c(C3CCCCC3)c3n(c2c1)CCN(CCN1CCCOCC1)c1cc(F)ccc1-3", "note": "[Example 1-170, 13-cyclohexyl-3-fluoro-5-[2-(1,4-oxazepan-4-yl)ethyl]-6,7-dihydro-5H-benzo[5,6][1,4]diazepino[7,1-a]indole-10-carboxylic acid dihydrochloride]", "IC50": "< 100"}, {"smiles": "O=C(O)c1ccc2c(C3CCCCC3)c3n(c2c1)CCN(CC(=O)N1CCC(F)(F)CC1)c1ccccc1-3", "note": "[Example 1-171, 13-cyclohexyl-5-[2-(4,4-difluoropiperidin-1-yl)-2-oxoethyl]-6,7-dihydro-5H-benzo[5,6][1,4]diazepino[7,1-a]indole-10-carboxylic acid monohydrochloride]", "IC50": "< 100"}, {"smiles": "O=C(O)c1ccc2c(C3CCCCC3)c3n(c2c1)CCN(CCN1CCC(C(F)(F)F)CC1)c1ccccc1-3", "note": "[Example 1-172, 13-cyclohexyl-5-[2-(4-trifluoromethylpiperidin-1-yl)ethyl]-6,7-dihydro-5H-benzo[5,6][1,4]diazepino[7,1-a]indole-10-carboxylic acid dihydrochloride]", "IC50": "< 100"}, {"smiles": "CCCN1CCC(CCN2CCn3c(c(C4CCCCC4)c4ccc(C(=O)O)cc43)-c3ccccc32)CC1", "note": "[Example 1-173, 13-cyclohexyl-5-[2-(1-propylpiperidin-4-yl)ethyl]-6,7-dihydro-5H-benzo[5,6][1,4]diazepino[7,1-a]indole-10-carboxylic acid dihydrochloride]", "IC50": "< 100"}, {"smiles": "O=C(O)c1ccc2c(C3CCCCC3)c3n(c2c1)CCN(CCN1CCC(F)(F)CC1)c1ccccc1-3", "note": "[Example 1-174, 13-cyclohexyl-5-[2-(4,4-difluoropiperidin-1-yl)ethyl]-6,7-dihydro-5H-benzo[5,6][1,4]diazepino[7,1-a]indole-10-carboxylic acid dihydrochloride]", "IC50": "< 100"}, {"smiles": "CCN1CCC(=C(F)CN2CCn3c(c(C4CCCCC4)c4ccc(C(=O)O)cc43)-c3ccccc32)CC1", "note": "[Example 1-175, 13-cyclohexyl-5-[2-(1-ethylpiperidin-4-ylidene)-2-fluoroethyl]-6,7-dihydro-5H-benzo[5,6][1,4]diazepino[7,1-a]indole-10-carboxylic acid dihydrochloride]", "IC50": "< 100"}, {"smiles": "O=C(O)c1ccc2c(C3CCCCC3)c3n(c2c1)CCN(CCN1CCCCC1)c1ccc(Cl)cc1-3", "note": "[Example 1-176, 2-chloro-13-cyclohexyl-5-[2-(piperidin-1-yl)ethyl]-6,7-dihydro-5H-benzo[5,6][1,4]diazepino[7,1-a]indole-10-carboxylic acid dihydrochloride]", "IC50": "< 100"}, {"smiles": "O=C(O)c1ccc2c(C3CCCCC3)c3n(c2c1)CCN(CCC1CCCCN1)c1ccccc1-3", "note": "(stereo not shown) [Example 1-177, 13-cyclohexyl-5-[2-(piperidin-2-yl)ethyl]-6,7-dihydro-5H-benzo[5,6][1,4]diazepino[7,1-a]indole-10-carboxylic acid dihydrochloride]", "IC50": "< 100"}, {"smiles": "CCN1CCCCC1CCN1CCn2c(c(C3CCCCC3)c3ccc(C(=O)O)cc32)-c2ccccc21", "note": "(stereo not shown) [Example 1-178, 13-cyclohexyl-5-[2-(1-ethylpiperidin-2-yl)ethyl]-6,7-dihydro-5H-benzo[5,6][1,4]diazepino[7,1-a]indole-10-carboxylic acid dihydrochloride]", "IC50": "< 100"}, {"smiles": "CSc1ccc2c(c1)N(CCN1CCCCC1)CCn1c-2c(C2CCCCC2)c2ccc(C(=O)O)cc21", "note": "[Example 1-179, 13-cyclohexyl-3-methylsulfanyl-5-[2-(piperidin-1-yl)ethyl]-6,7-dihydro-5H-benzo[5,6][1,4]diazepino[7,1-a]indole-10-carboxylic acid dihydrochloride]", "IC50": "< 100"}, {"smiles": "NC(=O)c1ccc2c(C3CCCCC3)c3n(c2c1)CCN(CCN1CCCCC1)c1cc(Cl)ccc1-3", "note": "[Example 1-180, 3-chloro-13-cyclohexyl-5-[2-(piperidin-1-yl)ethyl]-6,7-dihydro-5H-benzo[5,6][1,4]diazepino[7,1-a]indole-10-carboxamide dihydrochloride]", "IC50": "< 100"}, {"smiles": "O=C(O)c1ccc2c(C3CCCCC3)c3n(c2c1)CCN(CCc1cccnc1)c1ccccc1-3", "note": "[Example 1-181, 13-cyclohexyl-5-[2-(pyridin-3-yl)ethyl]-6,7-dihydro-5H-benzo[5,6][1,4]diazepino[7,1-a]indole-10-carboxylic acid dihydrochloride]", "IC50": "< 100"}, {"smiles": "O=C(O)c1ccc2c(C3CCCCC3)c3n(c2c1)CCN(CCc1ccncc1)c1ccccc1-3", "note": "[Example 1-182, 13-cyclohexyl-5-[2-(pyridin-4-yl)ethyl]-6,7-dihydro-5H-benzo[5,6][1,4]diazepino[7,1-a]indole-10-carboxylic acid dihydrochloride]", "IC50": "< 100"}, {"smiles": "O=C(O)c1ccc2c(C3CCCCC3)c3n(c2c1)CCN(CCN1C[C@H]2CCCC[C@H]2C1)c1ccccc1-3", "note": "[Example 1-183, 13-cyclohexyl-5-[(3aS,7aR)-2-(octahydroisoindol-2-yl)ethyl]-6,7-dihydro-5H-benzo[5,6][1,4]diazepino[7,1-a]indole-10-carboxylic acid dihydrochloride]", "IC50": "< 100"}, {"smiles": "O=C(O)c1ccc2c(C3CCCCC3)c3n(c2c1)CCN(CCN1CCC2(CCCC2)CC1)c1ccccc1-3", "note": "[Example 1-184, 5-[2-(8-azaspiro[4.5]decan-8-yl)ethyl]-13-cyclohexyl-6,7-dihydro-5H-benzo[5,6][1,4]diazepino[7,1-a]indole-10-carboxylic acid dihydrochloride]", "IC50": "< 100"}, {"smiles": "CCN(CC)CCN1CCn2c(c(C3CCCCC3)c3ccc(C(=O)O)cc32)-c2ccccc21", "note": "[Example 1-185, 13-cyclohexyl-5-(2-diethylaminoethyl)-6,7-dihydro-5H-benzo[5,6][1,4]diazepino[7,1-a]indole-10-carboxylic acid dihydrochloride]", "IC50": "< 100"}, {"smiles": "CC(C)N(CCN1CCn2c(c(C3CCCCC3)c3ccc(C(=O)O)cc32)-c2ccccc21)C(C)C", "note": "[Example 1-186, 13-cyclohexyl-5-(2-diisopropylaminoethyl)-6,7-dihydro-5H-benzo[5,6][1,4]diazepino[7,1-a]indole-10-carboxylic acid dihydrochloride]", "IC50": "< 100"}, {"smiles": "CC1CC(C)CN(C(=O)CN2CCn3c(c(C4CCCCC4)c4ccc(C(=O)O)cc43)-c3ccccc32)C1", "note": "(stereo not shown) [Example 1-187, 13-cyclohexyl-5-[2-(3,5-dimethylpiperidin-1-yl)-2-oxoethyl]-6,7-dihydro-5H-benzo[5,6][1,4]diazepino[7,1-a]indole-10-carboxylic acid monohydrochloride]", "IC50": "< 100"}, {"smiles": "CCC1CCCN(C(=O)CN2CCn3c(c(C4CCCCC4)c4ccc(C(=O)O)cc43)-c3ccccc32)C1", "note": "(stereo not shown) [Example 1-188, 13-cyclohexyl-5-[2-(3-ethylpiperidin-1-yl)-2-oxoethyl]-6,7-dihydro-5H-benzo[5,6][1,4]diazepino[7,1-a]indole-10-carboxylic acid monohydrochloride]", "IC50": "< 100"}, {"smiles": "CC1CC(C)CN(CCN2CCn3c(c(C4CCCCC4)c4ccc(C(=O)O)cc43)-c3ccccc32)C1", "note": "(stereo not shown) [Example 1-189, 13-cyclohexyl-5-[2-(3,5-dimethylpiperidin-1-yl)ethyl]-6,7-dihydro-5H-benzo[5,6][1,4]diazepino[7,1-a]indole-10-carboxylic acid dihydrochloride]", "IC50": "< 100"}]}]}
